ChEMBL document CHEMBL1122139, “Importance of the aromatic ring in adrenergic amines. 7. Comparison of the stereoselectivity of norepinephrine N-methyltransferase for aromatic vs. nonaromatic substrates and inhibitors” (J Med Chem, 1982)
Where “and” joins values, the source holds several entries; their conditions need not be identical. Equal entries are not always repeated.

Assays:
[1] = biological target: T1, Phenylethanolamine N-methyltransferase (Bos taurus, UniProt P10938); experiment: (§1) Inhibitory activity against Norepinephrine N-methyl-transferase of bovine adrenal glands; assay type: tissue-based, Adrenal gland
T1 sequence (P10938 whole entry): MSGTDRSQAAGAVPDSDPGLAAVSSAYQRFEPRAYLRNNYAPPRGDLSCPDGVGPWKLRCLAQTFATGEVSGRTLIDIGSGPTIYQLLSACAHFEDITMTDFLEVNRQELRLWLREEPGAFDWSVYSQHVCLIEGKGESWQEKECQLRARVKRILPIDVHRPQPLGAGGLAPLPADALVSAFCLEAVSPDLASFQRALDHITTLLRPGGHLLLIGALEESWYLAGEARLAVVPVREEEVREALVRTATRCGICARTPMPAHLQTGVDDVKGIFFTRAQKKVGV

[2] = Vmax value was calculated in terms of nmoles of product per mg of protein per minute
[3] = Vmax/Km x100 value of the compound
[4] = compound: NCC(O)C1CCCCCCC1; experiment: as §1; assay type: tissue-based; settings: Adrenal gland
[5] = compound: NC[C@H](O)C1CCCCC1; experiment: as §1; assay type: tissue-based; settings: Adrenal gland
[6] = compound: NC[C@@H](O)C1CCCCC1; experiment: as §1; assay type: tissue-based; settings: Adrenal gland
[7] = compound: NC[C@H](O)c1ccccc1; experiment: as §1; assay type: tissue-based; settings: Adrenal gland
[8] = compound: NC[C@@H](O)c1ccccc1; experiment: as §1; assay type: tissue-based; settings: Adrenal gland
[9] = compound: NC[C@@H](O)C1CCCCCCC1; experiment: as §1; assay type: tissue-based; settings: Adrenal gland
[10] = compound: NC[C@H](O)C1CCCCCCC1; experiment: as §1; assay type: tissue-based; settings: Adrenal gland

CC(N)CC1CCCCCCC1 (configuration not stated)
Ki [1]: 86 µM

NCCC1CCCCC1
Ki [1]: 41 µM

C[C@@H](N)C1CCCCC1
Ki [1]: 412 µM

C[C@@H](N)CC1CCCCCCC1
Ki [1]: 157 µM

NC[C@@H](O)C1CCCCC1
Vmax [2]: 0.64 nmol/min/mg
Vmax/Km x100 [3]: 1.88

C[C@@H](N)CC1CCCCC1
Ki [1]: 290 µM

NC[C@@H](O)C1CCCCCCC1
Vmax [2]: 0.27 nmol/min/mg
Vmax/Km x100 [3]: 0.67

NCCc1ccccc1 [PHENETHYLAMINE]
Ki [1]: 467 µM

C[C@@H](N)c1ccccc1
Ki [1]: 1680 µM

NCC(O)C1CCCCC1 (configuration not stated)
Vmax [2]: 0.99 nmol/min/mg
Vmax/Km x100 [3]: 2.47

CC(N)Cc1ccccc1 (configuration not stated) [AMPHETAMINE]
Ki [1]: 740 µM

CC(N)CC1CC=CCC1 (configuration not stated)
Ki [1]: 110 µM

NC[C@@H](O)c1ccccc1 (stereo in doubt; 9b)
Vmax [2]: 0.92 nmol/min/mg
Vmax/Km x100 [3]: 0.93

C[C@H](N)CC1CCCCCCC1
Ki [1]: 34 µM

NCC(O)C1CCCCCCC1 (configuration not stated)
Vmax [2]: 0.27 nmol/min/mg
Vmax/Km x100 [3]: 0.62

CC(N)CC1CCCCC1 (configuration not stated)
Ki [1]: 109 µM

C[C@H](N)Cc1ccccc1 (stereo in doubt; 1c) [DEXTROAMPHETAMINE]
Ki [1]: 1380 µM

NC[C@H](O)C1CCCCCCC1
Vmax [2]: 0.38 nmol/min/mg
Vmax/Km x100 [3]: 0.88

NC[C@H](O)C1CCCCC1
Vmax [2]: 1.85 nmol/min/mg
Vmax/Km x100 [3]: 2.43

NC[C@@H](O)c1ccccc1 (stereo in doubt; 9a)
Vmax [2]: 1.75 nmol/min/mg
Vmax/Km x100 [3]: 1.62

C[C@H](N)CC1CCCCC1
Ki [1]: 22 µM

NC[C@H](O)c1ccccc1
Vmax [2]: 4.85 nmol/min/mg
Vmax/Km x100 [3]: 1.69

C[C@H](N)c1ccccc1
Ki [1]: 149 µM

C[C@H](N)Cc1ccccc1 (stereo in doubt; 1b) [DEXTROAMPHETAMINE]
Ki [1]: 422 µM

C[C@H](N)C1CCCCC1
Ki [1]: 44 µM

CC(N)c1ccccc1 (configuration not stated)
Ki [1]: 460 µM

B1: Phenylethanolamine N-methyltransferase (Bos taurus), P10938 (protein)
chain: T1 sequence (P10938 whole entry)
Km [4]: 43 µM
Km [5]: 76 µM
Km [6]: 34 µM
Km [7]: 286 µM
Km [8]: 96 µM and 108 µM
Km [9]: 40 µM
Km [10]: 43 µM
